Experimental findings from ChEMBL document CHEMBL6103641, “Palladium-Catalyzed Late-Stage Functionalization of Natural Antitumor Drug: Synthesis and Bioactivity of 5-Aryl Camptothecins” (J Nat Prod, 2025) are described below.

pIC50: −log10 of the molar value. Activity calls are given as the source filed them. No cut-off for these calls is given here. Some results are limits rather than exact numbers.

By pIC50 is commonly meant the IC50 on a negative log10 scale, so that one unit is a factor of ten.

In experiment [1] the test system is HCT-116. Kind of experiment: Cytotoxicity against human HCT-116 cells assessed as inhibition of cell viability incubated for 24 hrs by MTT assay. The experiment is classed as functional, cell-based. The conditions noted are these: HCT-116, 24 h. On the technique in general: Formazan colour is commonly taken as a measure of viable cells.
Experiment [2] relates to HCT-116. The experiment in a line: Induction of apoptosis in human HCT-116 cells at 2 uM incubated for 24 hrs by Annexin V-FITC/PI staining based flow cytometric analysis. The experiment is classed as functional, cell-based. (In general: Flow cytometry measures light scatter and fluorescence of single cells or particles in a stream.)
Experiment [3] deals with HCT-116. Kind of experiment: Induction of cell cycle arrest in human HCT-116 cells assessed as accumulation at G2/M phase at 0.25 to 2 uM incubated for 24 hrs by PI staining based flow cytometry. Type of experiment: functional. Particulars: dose 0.25-2 µM.
Experiment [4] relates to HCT-116. Kind of experiment: Antiproliferative activity against human HCT-116 cells assessed as inhibition of colony growth at 2 uM incubated for 24 hrs by crystal violet staining based analysis. The experiment is classed as functional, cell-based.
Experiment [5] relates to HCT-116. Kind of experiment: Induction of apoptosis in human HCT-116 cells assessed as upregulation of Bax expression at 0.25 to 2 uM incubated for 24 hrs by western blot analysis. Type of experiment: functional, cell-based. The conditions noted are these: dose 0.25-2 µM.
Experiment [6] concerns HCT-116. Kind of experiment: Induction of apoptosis in human HCT-116 cells assessed as downregulation of Bcl-2 expression at 0.25 to 2 uM incubated for 24 hrs by western blot analysis. Type of experiment: functional, cell-based. The conditions noted are these: dose 0.25-2 µM. In general terms: In western blotting, separated proteins are transferred to a membrane and probed.

In experiment [7] the test system is HCT-116. The experiment in a line: Induction of apoptosis in human HCT-116 cells assessed as upregulation of cleaved caspase-3 expression at 0.25 to 2 uM incubated for 24 hrs by western blot analysis. The experiment is classed as functional, cell-based. Particulars: dose 0.25-2 µM.
The test system of experiment [8] is MCF7. Kind of experiment: Cytotoxicity against human MCF7 cells assessed as inhibition of cell viability incubated for 24 hrs by MTT assay. Type of experiment: functional, cell-based. The conditions noted are these: MCF7, 24 h.
Experiment [9] has as its system HCT-116. Kind of experiment: Antiproliferative activity against human HCT-116 cells assessed as inhibition of colony growth incubated for 24 hrs by crystal violet staining based analysis. The experiment is classed as functional, cell-based. The conditions noted are these: dose 0.25-2 µM.
A further experiment concerns A549. The experiment in a line: Cytotoxicity against human A549 cells assessed as inhibition of cell viability incubated for 24 hrs by MTT assay. The conditions noted are these: A549, 24 h. The experiment is classed as functional, cell-based.
Experiment [10] deals with MCF7. Kind of experiment: Antiproliferative activity against human MCF7 cells assessed as inhibition of colony growth at 2 uM incubated for 24 hrs by crystal violet staining based analysis. The experiment is classed as functional, cell-based.
Experiment [11] deals with MCF7. The experiment in a line: Antiproliferative activity against human MCF7 cells assessed as inhibition of colony growth incubated for 24 hrs by crystal violet staining based analysis. Particulars: dose 0.25-2 µM. Type of experiment: functional, cell-based.
In experiment [12] the test system is MCF7. Kind of experiment: Induction of cell cycle arrest in human MCF7 cells assessed as accumulation at G2/M phase at 0.25 to 2 uM incubated for 24 hrs by PI staining based flow cytometry. The experiment is classed as functional. Particulars: dose 0.25-2 µM.
For experiment [13], the system named is MCF7. The experiment in a line: Induction of apoptosis in human MCF7 cells at 2 uM incubated for 24 hrs by Annexin V-FITC/PI staining based flow cytometric analysis. The experiment is classed as functional, cell-based.

As to `CC[C@@]1(O)C(=O)OCc2c1cc1n(c2=O)[C@@H](c2c(OC)cccc2OC)c2cc3ccccc3nc2-1`, the pIC50 in the experiment with HCT-116 [1] was 7.30; in the experiment on MCF7 [8], 6.40; in the experiment on A549, under 5.00. For the same compound, the Activity entry in the experiment with HCT-116 [2] was “Active; Superior Activity Compared To Camptothecin Observed”; in the experiment on HCT-116 [4], “Active; Superior Activity Compared To Camptothecin Observed”; in the experiment on HCT-116 [9], “Dose-dependent-effect”. The result in the experiment with HCT-116 [3], with HCT-116 [5], in the experiment on HCT-116 [6] and with HCT-116 [7] was Active.
Turning to `CC[C@@]1(O)C(=O)OCc2c1cc1n(c2=O)[C@H](c2cc(C)cc(C)c2)c2cc3ccccc3nc2-1`, the pIC50 is under 5.00 with HCT-116 [1], 7.40 with MCF7 [8] and under 5.00 in the experiment on A549. Further, the Activity entry in the experiment on MCF7 [10] was “Active; Superior Activity Compared To Camptothecin Observed”; in the experiment on MCF7 [11], “Dose-dependent-effect”; in the experiment with MCF7 [13] it was “Active; Superior Activity Compared To Camptothecin Observed”. In addition, the outcome in the experiment on MCF7 [12] was Active.
